# According to ChEMBL document CHEMBL3727365, “Compounds that modulate intracellular calcium” (2012):
# Test system: Jurkat
# Test: Inhibition of PHA/TPA-induced IL2 release in human Jurkat T cells preincubated for 10 mins followed by PHA/TPA stimulation measured after […] by ELISA
# Type: functional, cell-based
row,IC50 [nM],SMILES
1,50,Cn1nc(-c2ccccc2F)cc1-c1ccc(C(=O)Nc2ncccc2F)s1
2,< 50,Cn1nc(-c2nccs2)cc1-c1ccc(C(=O)Nc2ccccc2F)s1
3,50,Cn1nc(-c2ccco2)cc1-c1ccc(C(=O)Nc2ccccc2Cl)s1
4,< 50,Cn1nc(-c2nccs2)cc1-c1ccc(C(=O)Nc2ncc(Cl)cc2F)s1
5,< 50,Cn1nc(-c2ccco2)cc1-c1ccc(C(=O)Nc2ccncc2F)s1
6,< 50,Cn1nc(C(F)(F)F)cc1-c1cnc(NC(=O)c2ccccc2F)s1

# Second part, the compound before the results:
row,SMILES,IC50 [nM]
1,Cn1nc(-c2ccco2)cc1-c1ccc(C(=O)Nc2ncc(Cl)cc2F)s1,< 50
2,Cn1nc(-c2ccccc2F)cc1-c1ccc(C(=O)Nc2c(F)cncc2F)s1,< 50
3,Cn1nc(-c2ccco2)cc1-c1ccc(C(=O)Nc2c(F)cncc2F)s1,< 50
4,Cc1nc2cc(Cl)c(-c3cnc(NC(=O)c4ccccc4Cl)s3)cc2o1,50
5,Cn1nc(-c2ccccc2F)cc1-c1ccc(C(=O)Nc2ccncc2F)s1,< 50
6,Cn1nc(-c2ccco2)cc1-c1ccc(C(=O)Nc2ncccc2F)s1,> 100
7,Cn1nc(-c2ccccc2)cc1-c1ccc(C(=O)Nc2ccccc2F)s1,> 100
8,Cn1nc(-c2nccs2)cc1-c1ccc(C(=O)Nc2ccncc2F)s1,< 50
9,Cn1nc(-c2ccccc2)cc1-c1ccc(C(=O)Nc2ccncc2F)s1,50
10,Cn1nc(-c2ccccc2F)cc1-c1ccc(C(=O)Nc2ncc(Cl)cc2F)s1,< 50

# Target: ORAI1/STIM1 (Homo sapiens) (UniProt Q96D31+Q13586)
# Test: Inhibition of recombinant human STIM1/Orai1 expressed in HEK293 cells assessed as inhibition of peak basal signal after 30 mins by fluo4-AM dye-based FLIPR assay
# Type: cell-based
# ORAI1/STIM1 (Homo sapiens), sequence (Q13586 23-685 partner limits assumed): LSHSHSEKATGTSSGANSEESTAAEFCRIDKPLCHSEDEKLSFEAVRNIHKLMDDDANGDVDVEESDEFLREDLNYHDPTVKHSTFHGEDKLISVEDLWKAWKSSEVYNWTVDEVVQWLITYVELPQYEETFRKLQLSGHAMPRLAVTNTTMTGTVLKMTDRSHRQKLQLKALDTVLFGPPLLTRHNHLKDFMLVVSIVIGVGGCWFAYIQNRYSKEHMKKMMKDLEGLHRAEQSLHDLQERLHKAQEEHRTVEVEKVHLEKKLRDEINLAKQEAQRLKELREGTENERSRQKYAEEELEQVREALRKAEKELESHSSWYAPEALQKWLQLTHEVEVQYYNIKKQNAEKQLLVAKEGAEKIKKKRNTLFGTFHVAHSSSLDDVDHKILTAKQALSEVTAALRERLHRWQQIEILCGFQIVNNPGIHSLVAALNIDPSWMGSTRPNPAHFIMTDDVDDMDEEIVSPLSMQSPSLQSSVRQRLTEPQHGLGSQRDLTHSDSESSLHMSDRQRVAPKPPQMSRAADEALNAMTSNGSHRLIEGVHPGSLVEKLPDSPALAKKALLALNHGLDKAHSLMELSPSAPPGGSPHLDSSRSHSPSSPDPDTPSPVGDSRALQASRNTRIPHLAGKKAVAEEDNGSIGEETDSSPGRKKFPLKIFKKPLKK
# ORAI1/STIM1 (Homo sapiens), sequence (Q96D31 whole entry): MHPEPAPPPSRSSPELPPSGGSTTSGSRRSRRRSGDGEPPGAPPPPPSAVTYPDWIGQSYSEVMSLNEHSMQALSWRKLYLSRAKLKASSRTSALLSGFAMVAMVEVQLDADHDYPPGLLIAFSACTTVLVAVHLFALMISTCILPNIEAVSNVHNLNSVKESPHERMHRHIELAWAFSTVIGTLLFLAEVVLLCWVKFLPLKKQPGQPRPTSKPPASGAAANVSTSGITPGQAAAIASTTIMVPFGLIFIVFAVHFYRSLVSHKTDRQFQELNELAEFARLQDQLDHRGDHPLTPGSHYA
row,Efficacy [%],SMILES
1,< 50,Cc1ccccc1C(=O)Nc1ncc(-c2cc(C(F)(F)F)nn2C)s1
2,< 50,Cn1nc(C(F)(F)F)cc1-c1ccc(NC(=O)c2ccncc2F)s1
